# Patent publication US9079913B2, “Spiro-oxindole MDM2 antagonists” (The Regents of the University of Michigan, priority 2009, dated 2015)
# Like-named read-outs stand apart in the source and are kept apart here.
# Legend:
# [1] = molecular target: recombinant human His-tagged MDM2 protein (residues 1-118) (Homo sapiens (Human), UniProt Q00987); test: Fluorescence-polarization MDM2 binding assay;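 further: fluorescence polarization read after three hours of incubation in potassium phosphate buffer containing bovine gamma globulin and Triton X-100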
# Chain of recombinant human His-tagged MDM2 protein (residues 1-118) (Q00987 1-118): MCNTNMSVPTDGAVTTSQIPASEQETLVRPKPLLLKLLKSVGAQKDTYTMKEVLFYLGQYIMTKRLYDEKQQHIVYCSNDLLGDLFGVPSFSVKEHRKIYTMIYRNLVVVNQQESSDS
# [2] = test system: Isogenic HCT-116 colon cancer cell lines; test: cells; assay type: cell-based;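 further: cells grown in 96-well plates in McCoy's 5A medium with 10% FBS, exposed to compound for 4 days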
# Experimental: Cells were seeded in 96-well flat bottom cell culture plates at a density of 2−3×10^3 cells/well with compounds and incubated for 4 days.
# [3] = test system: cancer cell lines with wild-type p53 / mutated or deleted p53 (ATCC); test: Cell growth assay (WST-8), other cancer cell lines; assay type: cell-based
# [4] = Table 19B, read-out: Binding affinities to MDM2 protein as determined by FP based assay IC50
# [5] = Homo sapiens, HCT-116, read-out: Inhibition of cell growth IC50, HCT116 p53 KO, Table 19B, HCT116 p53 KO
# [6] = Homo sapiens, HCT-116, read-out: Inhibition of cell growth IC50, HCT116 p53 WT, Table 19B, HCT116 p53 WT
# [7] = Homo sapiens, LNCaP, Table 19B, LNCaP cells, read-out: Inhibition of cell growth IC50, LNCaP
# [8] = Homo sapiens, PC-3, Table 19B, PC3 cells, read-out: Inhibition of cell growth IC50, PC3
# [9] = read-out: Inhibition of cell growth IC50, HCT116 p53 KO, Table 19B, HCT116 p53 KO
# [10] = read-out: Inhibition of cell growth IC50, HCT116 p53 WT, Table 19B, HCT116 p53 WT
# [11] = Table 19B, LNCaP cells, read-out: Inhibition of cell growth IC50, LNCaP
# [12] = Table 19B, PC3 cells, read-out: Inhibition of cell growth IC50, PC3
# [13] = Table 19A, FP binding assay, read-out: MDM2 IC50
# [14] = Homo sapiens, HCT-116, read-out: HCT-116 (p53-/-) IC50, Table 19A, HCT-116 p53-/-, cell growth
# [15] = Homo sapiens, HCT-116, read-out: HCT-116 (p53 wild-type) IC50, Table 19A, HCT-116 p53 wild-type, cell growth
# [16] = Homo sapiens, LNCaP, Table 19A, LNCAP cells, p53 wild-type, cell growth, read-out: LNCAP (p53 wild-type) IC50
# [17] = Homo sapiens, PC-3, Table 19A, PC-3 cells, deleted p53, cell growth, read-out: PC-3 (deleted p53) IC50
# [18] = Homo sapiens, SJSA-1, Table 19A, SJSA-1 cells, p53 wild-type, cell growth, read-out: SJSA-1 (p53 wild-type) IC50
compound,measurement,setting,value
CC(C)CC(C)(C)C[C@H]1N[C@@H](C(=O)NCC[C@H](O)CO)[C@H](c2ccc(F)c(Cl)c2)[C@@]12C(=O)Nc1cc(F)c(F)cc12 [MI-736],IC50,[1]; [4],< 1 µM
same,IC50,[2]; [5],4.4 ± 0.9 µM
same,IC50,[2]; [6],1 ± 0.2 µM
same,IC50,[3]; [7],0.9 µM
same,IC50,[3]; [8],6.3 ± 1.2 µM
CC(C)CC(C)(C)C[C@H]1N(C)[C@@H](C(=O)NCC[C@H](O)CO)[C@H](c2cccc(Cl)c2)[C@@]12C(=O)Nc1cc(F)c(F)cc12 [MI-737],IC50,[1]; [4],> 1 µM
same,IC50,[2]; [5],24.4 µM
same,IC50,[2]; [6],5 µM
same,IC50,[2]; [9],15 µM
same,IC50,[2]; [10],4.5 µM
same,IC50,[3]; [7],3.53 µM
same,IC50,[3]; [8],11.3 µM
same,IC50,[3]; [11],3.73 µM
same,IC50,[3]; [12],11.6 µM
CC(C)CC(C)(C)C[C@H]1N(C)[C@@H](C(=O)NCC[C@H](O)CO)[C@H](c2ccc(F)c(Cl)c2)[C@@]12C(=O)Nc1cc(F)c(F)cc12 [MI-738],IC50,[1]; [4],> 3 µM
same,IC50,[2]; [5],8.2 ± 0.6 µM
same,IC50,[2]; [6],8.5 ± 2.1 µM
same,IC50,[3]; [7],4.8 ± 1 µM
same,IC50,[3]; [8],8.5 ± 0.6 µM
CC(C)(C)C[C@H]1N[C@@H](C(=O)N2CCNCC2)[C@H](c2cccc(Cl)c2)[C@@]12C(=O)Nc1cc(Cl)c(F)cc12 [MI-739],IC50,[1]; [13],< 5 µM
same,IC50,[2]; [14],3 ± 0.2 µM
same,IC50,[2]; [15],2.1 ± 0.6 µM
same,IC50,[3]; [16],1.5 ± 0.5 µM
same,IC50,[3]; [17],3.2 ± 0.7 µM
CN1CCN(C(=O)[C@@H]2N[C@H](CC(C)(C)C)[C@]3(C(=O)Nc4cc(Cl)c(F)cc43)[C@H]2c2cccc(Cl)c2)CC1 [MI-740],IC50,[1]; [13],< 5 µM
same,IC50,[2]; [14],5.4 ± 1.9 µM
same,IC50,[2]; [15],2.8 ± 0.1 µM
same,IC50,[3]; [16],2 ± 0.3 µM
same,IC50,[3]; [17],4.8 ± 0.8 µM
CC(=O)N1CCN(C(=O)[C@@H]2N[C@H](CC(C)(C)C)[C@]3(C(=O)Nc4cc(Cl)c(F)cc43)[C@H]2c2cccc(Cl)c2)CC1 [MI-742],IC50,[1]; [13],< 10 µM
same,IC50,[2]; [14],19.9 ± 10.3 µM
same,IC50,[2]; [15],1.7 ± 0.1 µM
same,IC50,[3]; [16],2.2 ± 0.3 µM
same,IC50,[3]; [17],10.2 ± 4.8 µM
CC(C)(C)C[C@H]1N[C@@H](C(=O)N2CCN(C(=O)C3CC3)CC2)[C@H](c2cccc(Cl)c2)[C@@]12C(=O)N(C(=O)C1CC1)c1cc(Cl)c(F)cc12 [MI-743B],IC50,[1]; [4],> 100 µM
same,IC50,[2]; [5],> 1 µM
same,IC50,[2]; [6],> 1 µM
same,IC50,[3]; [7],> 1 µM
same,IC50,[3]; [8],> 1 µM
CC(C)(C)C[C@H]1N[C@@H](C(=O)N2CCN(C(=O)C3CC3)CC2)[C@H](c2cccc(Cl)c2)[C@@]12C(=O)Nc1cc(Cl)c(F)cc12 [MI-743],IC50,[1]; [4],> 1 µM
same,IC50,[2]; [5],5.7 ± 3.4 µM
same,IC50,[2]; [6],2.4 ± 0.2 µM
same,IC50,[3]; [7],2.5 ± 0.5 µM
same,IC50,[3]; [8],7.7 ± 3.1 µM
CN(C)CC(=O)N1CCN(C(=O)[C@@H]2N[C@H](CC(C)(C)C)[C@]3(C(=O)Nc4cc(Cl)c(F)cc43)[C@H]2c2cccc(Cl)c2)CC1 [MI-744],IC50,[1]; [13],< 10 µM
same,IC50,[2]; [14],5.7 ± 3.4 µM
same,IC50,[2]; [15],2.4 ± 0.2 µM
same,IC50,[3]; [16],1.7 ± 0.1 µM
same,IC50,[3]; [17],7.7 ± 3.1 µM
CN(C)CCC(=O)N1CCN(C(=O)[C@@H]2N[C@H](CC(C)(C)C)[C@]3(C(=O)Nc4cc(Cl)c(F)cc43)[C@H]2c2cccc(Cl)c2)CC1 [MI-746],IC50,[1]; [13],< 10 µM
same,IC50,[2]; [14],6.7 ± 1.8 µM
same,IC50,[2]; [15],2.3 ± 0.1 µM
same,IC50,[3]; [16],2.2 ± 0.4 µM
same,IC50,[3]; [17],6.9 ± 1.2 µM
CC(C)(C)C[C@H]1N[C@@H](C(=O)NCC[C@H]2CC[C@@H](O)C2)[C@H](c2cccc(Cl)c2F)[C@@]12C(=O)Nc1cc(Cl)ccc12 [MI-754],IC50,[1]; [4],< 1 µM
same,IC50,[2]; [9],> 5 µM
same,IC50,[2]; [10],< 3 µM
same,IC50,[3]; [11],< 3 µM
same,IC50,[3]; [12],> 5 µM
CC(C)(C)C[C@H]1N[C@@H](C(=O)NCCC2CCC(O)C2)[C@H](c2cccc(Cl)c2F)[C@@]12C(=O)Nc1cc(Cl)ccc12 (stereo partly shown) [MI-755],IC50,[1]; [4],< 1 µM
same,IC50,[2]; [5],> 10 µM
same,IC50,[2]; [6],< 3 µM
same,IC50,[3]; [7],< 3 µM
same,IC50,[3]; [8],> 10 µM
CC(C)(C)C[C@H]1N[C@@H](C(=O)NCCN2CCC(O)CC2)[C@H](c2cccc(Cl)c2)[C@@]12C(=O)Nc1cc(Cl)c(F)cc12 [MI-759],IC50,[1]; [13],< 1 µM
same,IC50,[2]; [14],5.2 ± 1 µM
same,IC50,[2]; [15],1.4 ± 0.6 µM
same,IC50,[3]; [16],1.4 ± 0.1 µM
same,IC50,[3]; [17],5.5 ± 2.3 µM
CC(C)(C)C[C@H]1N[C@@H](C(=O)NC2CCC(N)CC2)[C@H](c2cccc(Cl)c2)[C@@]12C(=O)Nc1cc(Cl)c(F)cc12 (stereo partly shown) [MI-776],IC50,[1]; [13],< 1 µM
same,IC50,[2]; [15],2.7 µM
same,IC50,[3]; [16],2.4 µM
same,IC50,[3]; [18],3.2 µM
CC(C)(C)C[C@H]1N[C@@H](C(=O)NC2CCC(NS(=O)(=O)C(F)(F)F)CC2)[C@H](c2cccc(Cl)c2)[C@@]12C(=O)Nc1cc(Cl)c(F)cc12 (stereo partly shown) [MI-777],IC50,[1]; [13],< 5 µM
same,IC50,[2]; [14],7.8 µM
same,IC50,[2]; [15],8.9 µM
same,IC50,[3]; [16],6.6 µM
same,IC50,[3]; [18],9.2 µM
CC(C)(C)C[C@H]1N[C@@H](C(=O)NC2CCNCC2)[C@H](c2cccc(Cl)c2F)[C@@]12C(=O)Nc1cc(Cl)ccc12 [MI-782],IC50,[1]; [13],< 1 µM
same,IC50,[2]; [14],4.7 µM
same,IC50,[2]; [15],0.7 µM
same,IC50,[3]; [18],1.2 µM
CC(=O)N1CCC(NC(=O)[C@@H]2N[C@H](CC(C)(C)C)[C@]3(C(=O)Nc4cc(Cl)ccc43)[C@H]2c2cccc(Cl)c2F)CC1 [MI-783],IC50,[1]; [13],< 0.5 µM
same,IC50,[2]; [14],18.5 µM
same,IC50,[2]; [15],0.9 µM
same,IC50,[3]; [18],1.1 µM
CC(C)(C)C[C@H]1N[C@@H](C(=O)NC2CCN(CCO)CC2)[C@H](c2cccc(Cl)c2F)[C@@]12C(=O)Nc1cc(Cl)ccc12 [MI-784],IC50,[1]; [13],< 0.5 µM
same,IC50,[2]; [14],10.3 µM
same,IC50,[2]; [15],0.4 µM
same,IC50,[3]; [18],0.7 µM
CC(C)(C)C[C@H]1N[C@@H](C(=O)NC2CCN(CC(C)(C)O)CC2)[C@H](c2cccc(Cl)c2F)[C@@]12C(=O)Nc1cc(Cl)ccc12 [MI-785],IC50,[1]; [13],< 0.5 µM
same,IC50,[2]; [14],8 µM
same,IC50,[2]; [15],0.5 µM
same,IC50,[3]; [18],0.7 µM
CC(C)(C)C[C@H]1N[C@@H](C(=O)NCC[C@](C)(O)CO)[C@H](c2cccc(Cl)c2F)[C@@]12C(=O)Nc1cc(Cl)ccc12 [MI-789],IC50,[1]; [13],< 3 µM
same,IC50,[2]; [14],> 10 µM
same,IC50,[2]; [15],< 3 µM
same,IC50,[3]; [16],< 3 µM
same,IC50,[3]; [17],> 10 µM
same,IC50,[3]; [18],< 3 µM
CC(C)(C)C[C@H]1N[C@@H](C(=O)NCC[C@@](C)(O)CO)[C@H](c2cccc(Cl)c2F)[C@@]12C(=O)Nc1cc(Cl)ccc12 [MI-790],IC50,[1]; [13],< 3 µM
same,IC50,[2]; [14],> 10 µM
same,IC50,[2]; [15],< 3 µM
same,IC50,[3]; [16],< 3 µM
same,IC50,[3]; [17],> 10 µM
same,IC50,[3]; [18],< 3 µM
O=C(NC1CCC(O)CC1)[C@@H]1N[C@H](CC2CCCC2)[C@]2(C(=O)Nc3cc(Cl)ccc32)[C@H]1c1cccc(Cl)c1F (stereo partly shown) [MI-791],IC50,[1]; [13],< 3 µM
same,IC50,[2]; [14],> 10 µM
same,IC50,[2]; [15],< 3 µM
same,IC50,[3]; [16],< 3 µM
same,IC50,[3]; [17],> 10 µM
same,IC50,[3]; [18],< 3 µM
O=C(NC1CCC(O)CC1)[C@@H]1N[C@H](C=C2CCCC2)[C@]2(C(=O)Nc3cc(Cl)ccc32)[C@H]1c1cccc(Cl)c1F (stereo partly shown) [MI-792],IC50,[1]; [13],< 5 µM
same,IC50,[2]; [14],> 20 µM
same,IC50,[2]; [15],< 10 µM
same,IC50,[3]; [16],< 10 µM
same,IC50,[3]; [17],> 20 µM
same,IC50,[3]; [18],< 10 µM
CC(C)(C)C[C@H]1N[C@@H](C(=O)NC2CCC(OC(=O)CN)CC2)[C@H](c2cccc(Cl)c2F)[C@@]12C(=O)Nc1cc(Cl)ccc12 (stereo partly shown) [MI-901],IC50,[1]; [13],< 1 µM
same,IC50,[2]; [14],> 10 µM
same,IC50,[2]; [15],< 3 µM
same,IC50,[3]; [16],< 3 µM
same,IC50,[3]; [17],> 5 µM
same,IC50,[3]; [18],< 3 µM
CC(C)[C@H](N)C(=O)OC1CCC(NC(=O)[C@@H]2N[C@H](CC(C)(C)C)[C@]3(C(=O)Nc4cc(Cl)ccc43)[C@H]2c2cccc(Cl)c2F)CC1 (stereo partly shown) [MI-902],IC50,[1]; [13],< 3 µM
same,IC50,[2]; [14],5.9 µM
same,IC50,[2]; [15],< 3 µM
same,IC50,[3]; [16],< 3 µM
same,IC50,[3]; [17],4 µM
same,IC50,[3]; [18],< 3 µM
